# From patent US20170112857A1, “Extended Release Aspirin” (New Haven Pharmaceuticals, Inc., priority 2015, published 2017)
# Like-named read-outs stand apart in the source and are kept apart here.
# Legend:
# TxB2 = assay: Urinary TxB2 excretion by GC/MS, basal and bradykinin-stimulated (Example 3); assay type: in vivo, human; conditions: for Basal urinary TxB2 levels over placebo: 24 hours post-dosing; for Bradykinin-stimulated TxB2 levels over placebo: 4 hours post-dosing
# From the text: […] This protocol was repeated two additional times. […] Statistical analysis was done using Wilcoxon rank sum test for continuous variables and the Pearson test for categorical variables.
# serum TxB2 = conditions: 75 mg IR ASA; Würtz et al.; cited from earlier work
# platelet function = assay: PlateletWorks platelet function at trough level; assay type: in vivo, human; conditions: Visit 2 trough
# Method: The platelet function and aggregation measures at trough level were compared between the 81 mg immediate release ASA, 162.5 mg ER ASA (Durlaza®) and 325 mg ER ASA groups. For this study the trough level data are from the following timepoints: (1) for 81 mg—the data at Visit 2; (2) for 162.5 mg ER ASA (Durlaza®)—the data at Visit 3 pre-dose; and (3) for 325 mg ER ASA—the data at Visit 6 pre-dose.
# This is unknown for patients with Diabetes and CVD or multiple risk factors.
# [1] = test system: platelet aggregation / clot strength; assay: Plateletmapping assay (TEG-6S analyzer); assay type: in vivo, human; conditions: Visit 2 trough
# Method: The […]® assay ([…] is a registered trademark of Haemoscope Corp.) was conducted using a TEG®-6S analyzer (TEG is a registered trademark of Haemoscope Corp.) and results included parameters: […] For summary purposes the change in each parameter over 24 hours is calculated by subtracting the result at 24 hours from the result at 1 hour (i.e., absolute difference). […] For this study the trough level data are from the following timepoints: (1) for 81 mg-the data at Visit 2; […]
# [2] = test system: High Sensitive C-Reactive Protein (hs-CRP); assay: High Sensitive C-Reactive Protein (hs-CRP) test; assay type: in vivo, human; conditions: V2 pre-dose, 81 mg IR ASA
# Method: Subjects were also measured for high sensitive C-reactive protein (“hs-CRP”) levels at Visit 1, Visit 2, Visit 3 pre-dose, Visit 3 at 24 hours, Visit 6 pre-dose and Visit 6 at 24 hours.
# High Sensitive C-Reactive Protein (“hs-CRP”) was measured using a Seimens Immulite 2000® Xpi analyzer (Immulite 2000 is a registered trademark of Siemens Healthcare Diagnostic, Inc.), prior to 162.5 mg ER ASA (Durlaza®) dosing at Visit 2 pre-dose, at Visit 3 pre-dose and Visit 3 at 24-hr post-dose for the 162.5 mg ER ASA (Durlaza®) dose, and at Visit 6 pre-dose and Visit 6 at 24-hr post-dose for the 325 mg ER ASA dose.
# [3] = Single dose ASA pharmacokinetics, IR ASA vs. ER ASA; assay type: in vivo, human; conditions: for AUC(0-t) / Cmax / Tmax: human, serum, oral, ASA
# Method: Healthy adults were randomized to receive single doses of extended release ASA (“ER ASA”) at a dosage of 20 mg, 40 mg, 81 mg, 162.5 mg ER ASA (Durlaza®; New Haven Pharmaceuticals, Inc., North Haven, Conn.), or 325 mg, or immediate release ASA (“IR ASA”; aspirin powder USP; Letco Medical, Decatur, Ala.) at a dosage of 5 mg, 10 mg, 20 mg, 40 mg or 81 mg. […] For pharmacodynamic assessments, serum 11-dehydro-thromboxane (“TxB2”, a stable metabolite of thromboxane A2) levels were assessed using a validated enzyme immunoassay kit in serial blood samples collected 1 hour before dosing and at 0.5, 1, 2, 4, 8, 16, and 24 hours after drug administration.
# platelet aggregation [4] = assay: AA-, collagen- and ADP-induced light transmittance aggregometry (LTA); assay type: in vivo, human; conditions: Visit 2 trough
# Method: High platelet reactivity has previously been implicated in incomplete inhibition during therapy with immediate release low-dose aspirin in patients with type II diabetes. The main study consisted of a run-in phase where subjects were administered 81 mg, everyday (“QD”), of immediate release acetylsalicylic acid (“IR ASA”) for 7-28 days. […] During Visits 2 and 5 subjects were subjected to the following tests: (1) platelet aggregation measurements (a) AA induced, (b) collagen induced, and (c) Multiplate®; […] During Visits 3 and 6 subjects were subjected to the following tests: (1) platelet aggregation measurements (a) AA induced, (b) collagen induced, and (c) Multiplate®; […] An increase in platelet aggregation ([…], or […] or […]) by more than 15% with either agonists (i.e., arachidonic acid or collagen) is considered a significant loss of aspirin effect over 24 hours. […] For this study the trough level data are from the following timepoints: (1) for 81 mg-the data at Visit 2; […]
# platelet aggregation [5] = conditions: 75 mg IR ASA; Würtz et al.; cited from earlier work
# [6] = 81 mg IR, subjects compared with Visit 6 (sub-study)
# [7] = single dose 5 mg, healthy adults
# [8] = single dose 10 mg, healthy adults
# [9] = single dose 20 mg, healthy adults
# [10] = single dose 40 mg, healthy adults
# [11] = single dose 81 mg, healthy adults
compound,measurement,setting,value
"CC(=O)Oc1ccccc1C(=O)O [IR ASA, acetylsalicylic acid]",Basal urinary TxB2 levels over placebo,TxB2; 81 mg daily for 1 week,significantly reduced
same,dose dependence of the effect on TxB2 synthesis,TxB2; 81 mg vs 162.5 mg,not seen
same,Bradykinin-stimulated TxB2 levels over placebo,TxB2; 81 mg,significantly reduced
same,Basal urinary TxB2 levels over placebo,TxB2; 162.5 mg daily for 1 week,significantly reduced
same,Bradykinin-stimulated TxB2 levels over placebo,TxB2; 162.5 mg,significantly reduced
same,selectivity for basal TxB2 production over prostacyclin production,TxB2; doses of 81 and 162.5 mg/d,selectively inhibit basal TxB2 production over prostacyclin production
same,serum TxB2 levels 24 hours after administration,serum TxB2,significant increase
same,PlateletWorks (% Agg) AA,"platelet function; 81 mg IR QD, main study",44 ± 19 % Agg
same,PlateletWorks (% Agg) ADP,"platelet function; 81 mg IR QD, main study",83 ± 15 % Agg
same,PlateletWorks (% Agg) Collagen,"platelet function; 81 mg IR QD, main study",47 ± 17 % Agg
same,PlateletWorks (% Agg) AA,platelet function; [6],44 ± 16 % Agg
same,PlateletWorks (% Agg) ADP,platelet function; [6],84 ± 10 % Agg
same,PlateletWorks (% Agg) Collagen,platelet function; [6],44 ± 12 % Agg
same,TEG PlateletMapping AA Aggregation,"[1]; 81 mg IR QD, main study",48 ± 29
same,TEG PlateletMapping ADP Aggregation,"[1]; 81 mg IR QD, main study",74 ± 25
same,"TEG PlateletMapping MA (clot strength, mm)","[1]; 81 mg IR QD, main study",65 ± 5 mm
same,TEG PlateletMapping MA-AA (mm),"[1]; 81 mg IR QD, main study",39 ± 15 mm
same,TEG PlateletMapping MA-ADP (mm),"[1]; 81 mg IR QD, main study",50 ± 18 mm
same,TEG PlateletMapping MA-fibrin (mm),"[1]; 81 mg IR QD, main study",17 ± 11 mm
same,"TEG PlateletMapping R (Clotting time, min)","[1]; 81 mg IR QD, main study",6.8 ± 1.5 min
same,TEG PlateletMapping AA Aggregation,[1]; [6],75 ± 17
same,TEG PlateletMapping ADP Aggregation,[1]; [6],73 ± 21
same,"TEG PlateletMapping MA (clot strength, mm)",[1]; [6],64 ± 3 mm
same,TEG PlateletMapping MA-AA (mm),[1]; [6],54 ± 9 mm
same,TEG PlateletMapping MA-ADP (mm),[1]; [6],52 ± 11 mm
same,TEG PlateletMapping MA-fibrin (mm),[1]; [6],24 ± 12 mm
same,"TEG PlateletMapping R (Clotting time, min)",[1]; [6],7.1 ± 0.7 min
same,"hs-CRP, Maximum",[2],57.4 mg/L
same,"hs-CRP, Mean",[2],9.62 mg/L
same,"hs-CRP, Minimum",[2],0.44 mg/L
same,time required to reach the maximum concentration of ASA,"[3]; all doses, single dose, healthy adults",1 to 2 h
same,AUC(0-t),"[3]; 5 mg, single dose 5 mg, healthy adults, read-out: AUClast",26.8 ng·h/mL
same,AUC(0-t),"[3]; 10 mg, single dose 10 mg, healthy adults, read-out: AUC0-8",136 ng·h/mL
same,AUC(0-t),"[3]; 10 mg, single dose 10 mg, healthy adults, read-out: AUClast",74.9 ng·h/mL
same,AUC(0-t),"[3]; 20 mg, single dose 20 mg, healthy adults, read-out: AUC0-8",366 ng·h/mL
same,AUC(0-t),"[3]; 20 mg, single dose 20 mg, healthy adults, read-out: AUClast",148 ng·h/mL
same,AUC(0-t),"[3]; 40 mg, single dose 40 mg, healthy adults, read-out: AUClast",384 ng·h/mL
same,AUC(0-t),"[3]; 81 mg, single dose 81 mg, healthy adults, read-out: AUClast",865 ng·h/mL
same,Cmax,[3]; [7],25.1 ng/mL
same,Tmax,[3]; [7],1.2 h
same,Cmax,[3]; [8],63.9 ng/mL
same,Tmax,[3]; [8],1.5 h
same,Cmax,[3]; [9],123 ng/mL
same,Tmax,[3]; [9],1.6 h
same,Cmax,[3]; [10],228 ng/mL
same,Tmax,[3]; [10],1.4 h
same,Cmax,[3]; [11],504 ng/mL
same,Tmax,[3]; [11],1.4 h
same,time period over which serum concentrations of ASA were maintained,"[3]; single dose, 8 hours = sampling interval evaluated",6 h
same,LTA (%) 2 μg/mL Collagen (Final),"platelet aggregation [4]; 81 mg IR QD, main study",54 ± 25%
same,LTA (%) 2 μg/mL Collagen (Max),"platelet aggregation [4]; 81 mg IR QD, main study",57 ± 24%
same,LTA (%) 4 μg/mL Collagen (Final),"platelet aggregation [4]; 81 mg IR QD, main study",65 ± 20%
same,LTA (%) 4 μg/mL Collagen (Max),"platelet aggregation [4]; 81 mg IR QD, main study",66 ± 21%
same,LTA (%) 5 μM ADP (Final),"platelet aggregation [4]; 81 mg IR QD, main study",50 ± 17%
same,LTA (%) 5 μM ADP (Max),"platelet aggregation [4]; 81 mg IR QD, main study",59 ± 14%
same,LTA (%) 1 mM AA (Max),"platelet aggregation [4]; 81 mg IR QD, main study",5 ± 12%
same,"LTA (%) 2 mM AA (Final), first line so labelled (r8)","platelet aggregation [4]; 81 mg IR QD, main study",5 ± 12%
same,"LTA (%) 2 mM AA (Final), second line (r10)","platelet aggregation [4]; 81 mg IR QD, main study",6 ± 13%
same,LTA (%) 2 mM AA (Max),"platelet aggregation [4]; 81 mg IR QD, main study",7 ± 14%
same,LTA (%) 2 μg/mL Collagen (Final),platelet aggregation [4]; [6],67 ± 12%
same,LTA (%) 2 μg/mL Collagen (Max),platelet aggregation [4]; [6],68 ± 11%
same,LTA (%) 4 μg/mL Collagen (Final),platelet aggregation [4]; [6],71 ± 13%
same,LTA (%) 4 μg/mL Collagen (Max),platelet aggregation [4]; [6],73 ± 12%
same,LTA (%) 5 μM ADP (Final),platelet aggregation [4]; [6],52 ± 14%
same,LTA (%) 5 μM ADP (Max),platelet aggregation [4]; [6],61 ± 10%
same,LTA (%) 1 mM AA (Max),platelet aggregation [4]; [6],4 ± 2%
same,"LTA (%) 2 mM AA (Final), first line so labelled (r8)",platelet aggregation [4]; [6],3 ± 2%
same,"LTA (%) 2 mM AA (Final), second line (r10)",platelet aggregation [4]; [6],3 ± 2%
same,LTA (%) 2 mM AA (Max),platelet aggregation [4]; [6],4 ± 2%
same,AA induced and collagen induced platelet aggregation 24 hours after administration,platelet aggregation [5],significant increase
